{"source": "patent US6888016B2", "about": "“Mixtures for stimulating glucose up-take” (Loders Croklaan USA LLC, priority 2001, dated 2005)", "tested_on": "3T3-L1 adipocytes", "assay": "Insulin stimulated glucose uptake (ISGU), [3H]2-deoxyglucose incorporation in differentiated adipocytes", "assay_type": "cell-based, Murine", "conditions": "3 days incubation; for increase in glucose uptake in combination with CLA over CLA alone: compound A in combination with CLA, 1 nM insulin, significantly higher than CLA alone, P<0.05 Students T-test, FIG. 2", "experimental": "Murine (3T3-L1 cells; ATCC CL-173) were seeded into multi-well plates and incubated in growth medium (DMEM supplemented with 10% FCS, 2 mM L-glutamine, 100 iu/ml penicillin and 100 μg/ml streptomycin) at 37° C./5% CO2 until 2 days post-confluence (day 0). Differentiation was carried out approximately according to Iwata et al (Diabetes 2001 50: 1083-1092). Briefly, differentiation was induced by changing to growth medium containing 3-isobutyl-1-methylxanthine (0.5 mM), dexamethasone (0.25 μM) and 1 μM insulin for 3 days, and then growth medium containing 0.8 μM insulin for another 3 days. Finally cells were retained in serum free growth medium until ready for experimentation, typically cells were used between days 6-9.\nPine nut oil (PNO) and palm kernel oil (PKO) fatty acids were prepared by saponification of pine nut oil or palm kernel oil. PNO contains high levels of PUFAs, in particular high levels of pinolenic acid. PKO has high levels of medium chain fatty acids (C8-12). All samples were prepared as 1 mg/ml stocks in ethanol and diluted in media accordingly with the following exceptions. IGF-1 was prepared by initially dissolving in […], followed by the addition of 400 μl PBS supplemented with 1 mg/ml BSA. This was diluted with media to the correct concentration. Ascorbic acid, sodium vanadate and aspartame were made up in DMEM.\nDifferentiated adipocytes were incubated for a period of 3 days in DMEM (containing 2 mM L-glutamine, 100 iu/ml penicillin, 100 μg/ml streptomycin, 1 nM insulin and 10% FCS) supplemented with or without CLA and/or compound As. The cells were then washed three times with DMEM (containing 1 mM deoxyglucose). Insulin stimulated glucose uptake was carried out according to Iwata et al (Diabetes 2001 50: 1083-1092). Briefly, cells were stimulated with 1 nM insulin in Krebs Ringer Phosphate (KRP) and HEPES buffer [10 mM HEPES, 131.2 mM NaCl, 4.7 mM KCl, 2.5 mM CaCl2, 1.2 mM MgSO4, 2.5 mM sodium phosphate buffer, pH 7.4] with 1% BSA at 37° C. […] Radioactive incorporation was measured by scintillation counting of 100 μl of each cell lysate. […]", "data": [{"compound": "IGF-1: IGF-1, purified or in natural extracts; compound A", "values": [{"measurement": "increase in glucose uptake in combination with CLA over CLA alone", "value": 39, "unit": "%"}]}, {"compound": "O=C1O[C@H]([C@@H](O)CO)C(O)=C1O", "note": "[Vit C, Ascorbic acid]", "values": [{"measurement": "increase in glucose uptake in combination with CLA over CLA alone", "value": 20, "unit": "%"}]}, {"compound": "Conjugated linoleic acid [CLA]", "values": [{"measurement": "insulin stimulated glucose uptake (ISGU), effect of CLA alone", "setting": "CLA fatty acids at 10 or 50 μg/ml, compared with control differentiated adipocytes, radiolabel incorporation (3H-DPM), FIG. 1", "value": "reduces ISGU compared with the control"}]}]}
